Measurements reported in the supplement of paper PMC10307832.

Each cell line was assayed with CC(C)C[C@@H](C(=O)N[C@H](C(=O)OC1CCCC1)c1ccccc1)[C@H](O)C(=O)NO [Tosedostat] + C[C@@H](Oc1cc(-c2cnn(C3CCNCC3)c2)cnc1N)c1c(Cl)ccc(F)c1Cl [Crizotinib] (partner 1 µM) (assay: relative viability (nuclei count vs DMSO), 5 days (fraction); higher = more cells survive). Settings: first compound 2 µM.
Summary of the method: (§1)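 One day after seeding in 1536-well plates, lung cancer cell lines were dosed by pin tool. Dosing was either single-drug or a fixed anchor-drug dose plus five library-drug doses (not always all listed) in √10 steps. After 5 days, nuclei were stained in one fix-and-stain step and counted on 4× images, and relative viability is the nuclei count of treated wells over that of vehicle wells, given as the median of duplicate plates.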

| Cell Line | relative viability |
| --- | --- |
| NCI-H1944 | 0.942 |
| NCI-H2085 | 0.814 |
| ABC-1 | 0.631 |
| NCI-H358 | 0.196 |
| PC-3 [JPC-3] | 0.665 |
| LOU-NH91 | 0.694 |

Each cell line was assayed with CC(C)C[C@@H](C(=O)N[C@H](C(=O)OC1CCCC1)c1ccccc1)[C@H](O)C(=O)NO [Tosedostat] + C[C@]1(O)C[C@@H](c2nc(-c3ccc4ccc(-c5ccccc5)nc4c3)c3c(N)nccn32)C1 [Linsitinib] (partner 1 µM) in the same assay as above. Settings: first compound 0.02 µM.
Summary of the method: as §1

| Cell Line | relative viability |
| --- | --- |
| NCI-H2228 | 0.792 |
| HCC-15 | 0.826 |
| EKVX | 0.935 |
| LC-2-ad | 0.865 |
| NCI-H1666 | 0.864 |
| NCI-H1944 | 1.17 |
| NCI-H2085 | 0.935 |
| ABC-1 | 0.95 |
| NCI-H358 | 0.944 |
| PC-3 [JPC-3] | 1.03 |
| LOU-NH91 | 0.961 |

Same assay, conditions: first compound 0.06325 µM

| Cell Line | relative viability |
| --- | --- |
| NCI-H2228 | 0.63 |
| HCC-15 | 0.876 |
| EKVX | 1.01 |
| LC-2-ad | 0.743 |
| NCI-H1666 | 0.815 |
| NCI-H1944 | 1.14 |
| NCI-H2085 | 0.889 |
| ABC-1 | 0.868 |
| NCI-H358 | 0.788 |
| PC-3 [JPC-3] | 1 |
| LOU-NH91 | 0.932 |

Same assay, conditions: first compound 0.2 µM

| Cell Line | relative viability |
| --- | --- |
| NCI-H2228 | 0.686 |
| HCC-15 | 0.848 |
| EKVX | 1.03 |
| LC-2-ad | 0.866 |
| NCI-H1666 | 0.805 |
| NCI-H1944 | 1.28 |
| NCI-H2085 | 0.724 |
| ABC-1 | 0.854 |
| NCI-H358 | 0.544 |
| PC-3 [JPC-3] | 1 |
| LOU-NH91 | 0.991 |

Same assay, conditions: first compound 0.6325 µM

| Cell Line | relative viability |
| --- | --- |
| NCI-H2228 | 0.612 |
| HCC-15 | 0.831 |
| EKVX | 0.932 |
| LC-2-ad | 0.823 |
| NCI-H1666 | 0.818 |
| NCI-H1944 | 1.12 |
| NCI-H2085 | 0.838 |
| ABC-1 | 0.773 |
| NCI-H358 | 0.548 |
| PC-3 [JPC-3] | 0.946 |
| LOU-NH91 | 0.973 |

Same assay, conditions: first compound 2 µM

| Cell Line | relative viability |
| --- | --- |
| NCI-H2228 | 0.525 |
| HCC-15 | 0.672 |
| EKVX | 1.08 |
| LC-2-ad | 0.805 |
| NCI-H1666 | 0.989 |
| NCI-H1944 | 1.02 |
| NCI-H2085 | 0.836 |
| ABC-1 | 0.626 |
| NCI-H358 | 0.507 |
| PC-3 [JPC-3] | 0.653 |
| LOU-NH91 | 0.938 |

Each cell line was assayed with CC1=NN=C(O1)C2=NN=C(C=C2)N3CCC(CC3)OC4=C(C=CC(=C4)F)Cl + COc1cccc2cc(-c3nc([C@H]4CC[C@H](C(=O)O)CC4)n4ncnc(N)c34)[nH]c12 [OSI-027] (partner 0.5 µM) in the same assay as above. Settings: first compound 0.253 µM.
Summary of the method: as §1

| Cell Line | relative viability |
| --- | --- |
| NCI-H2228 | 0.41 |
| HCC-15 | 0.605 |
| EKVX | 0.481 |
| LC-2-ad | 0.689 |
| NCI-H1666 | 0.539 |
| NCI-H1944 | 0.36 |
| NCI-H2085 | 0.594 |
| ABC-1 | 0.244 |
| NCI-H358 | 0.635 |
| PC-3 [JPC-3] | 0.691 |
| LOU-NH91 | 0.693 |

Same assay, conditions: first compound 0.8 µM

| Cell Line | relative viability |
| --- | --- |
| NCI-H2228 | 0.448 |
| HCC-15 | 0.573 |
| EKVX | 0.465 |
| LC-2-ad | 0.678 |
| NCI-H1666 | 0.697 |
| NCI-H1944 | 0.379 |
| ABC-1 | 0.326 |
| NCI-H358 | 0.461 |
| PC-3 [JPC-3] | 0.619 |
| LOU-NH91 | 0.645 |

Same assay, conditions: first compound 2.53 µM

| Cell Line | relative viability |
| --- | --- |
| NCI-H2228 | 0.302 |
| HCC-15 | 0.532 |
| EKVX | 0.362 |
| LC-2-ad | 0.632 |
| NCI-H1666 | 0.801 |
| NCI-H1944 | 0.441 |
| NCI-H2085 | 0.732 |
| ABC-1 | 0.411 |
| NCI-H358 | 0.561 |
| PC-3 [JPC-3] | 0.655 |
| LOU-NH91 | 0.706 |

Same assay, conditions: first compound 8 µM

| Cell Line | relative viability |
| --- | --- |
| NCI-H2228 | 0.468 |
| HCC-15 | 0.522 |
| EKVX | 0.423 |
| LC-2-ad | 0.682 |
| NCI-H1666 | 0.797 |
| NCI-H1944 | 0.425 |
| NCI-H2085 | 0.49 |
| ABC-1 | 0.47 |
| NCI-H358 | 0.514 |
| PC-3 [JPC-3] | 0.681 |
| LOU-NH91 | 0.69 |
